In ChEMBL document CHEMBL1133851, “Novel spermine-amino acid conjugates and basic tripeptides enhance cleavage of the hairpin ribozyme at low magnesium ion concentration” (Bioorg Med Chem Lett, 2001):
Where a SMILES comes first, the peptide text is derived from it. [ ]: non-standard residue; d: D form. ξ: configuration not given here. Dab = NCC[C@H](N)C(=O)O; Dap = NC[C@H](N)C(=O)O; ξDab = NCCC(N)C(=O)O; ξDap = NCC(N)C(=O)O

Columns and labels:
Hairpin ribozyme RNA [1] = test system: Hairpin ribozyme RNA
Description: Cleavage rate against hairpin ribozyme at 2 mM, in presence of 0.5 uM magnesium ions

Hairpin ribozyme RNA [2] = test system: Hairpin ribozyme RNA; remark: listed apart in the source
Description: Cleavage rate against hairpin ribozyme at 5 mM with 0.5 uM magnesium ions

Row | Compound | K obs (Hairpin ribozyme RNA [1]) | K obs (Hairpin ribozyme RNA [2])
1 | NCCC(=O)O | 0.018 | 0.03
2 | NCC(NC(=O)[C@@H](N)CN)C(=O)O (some centres not stated) (H-[Dap]-[ξDap]-OH) | 0.024 | 
3 | NCCCC[C@H](N)C(=O)O | 0.016 | 0.013
4 | NCCC(NC(=O)[C@@H](N)CN)C(=O)O (some centres not stated) (H-[Dap]-[ξDab]-OH) | 0.026 | 
5 | N[C@H](Cc1c[nH]cn1)C(=O)O | 0.0085 | 0.026
6 | NC[C@H](N)C(=O)O | 0.061 | 0.045
7 | NC[C@@H](N)C(=O)O | 0.02 | 0.022
8 | NCCC[C@@H](N)C(=O)O | 0.0086 | 0.034
9 | NCC[C@H](N)C(=O)NC(CN)C(=O)O (some centres not stated) (H-[Dab]-[ξDap]-OH) | 0.02 | 
10 | NCCCC(=O)O | 0.0088 | 0.023
11 | NCCCC[C@@H](N)C(=O)O | 0.004 | 0.026
12 | N[C@@H](Cc1c[nH]cn1)C(=O)O | 0.037 | 0.013
13 | NCCCNCCCCNCCCN | 0.073 | 0.065
14 | N=C(N)NCCC[C@H](N)C(=O)O | 0.016 | 0.034
15 | NCCC(NC(=O)[C@@H](N)CCN)C(=O)O (some centres not stated) (H-[Dab]-[ξDab]-OH) | 0.021 | 
16 | NCC[C@H](N)C(=O)O | 0.085 | 0.08
17 | NCC[C@@H](N)C(=O)O | 0.023 | 0.027
18 | NCC(=O)O | 0.017 | 0.03
